The subject of assay [1] is rhabdomyosarcoma cells. Put plainly: Morphological imaging of treated cells. The format is cell-based. The source says: Among the 64 compounds identified above, 33 compounds of unknown mechanism of action were identified.
Assay [2] deals with NCI-60 cancer cell line panel. The experiment in a line: NCI-60 cancer cell line panel, percentage growth. The format is cell-based, human. The procedure:
This example describes the testing of PFI-90 against the NCI-60 panel. The NCI-60 cancer cell line panel is a collection of 60 human cancer cell lines maintained by the National Cancer Institute (see Shoemaker et al., Nat. Rev. Cancer, 6: 813-823 (2006)). Briefly, the percentage growth of the cancer cells lines was measured in the presence of PFI-90 at various concentrations.

Structures are written as SMILES. “Also recorded” adds a separate entry of the source.

Consider two compounds from US20230015647A1, “INHIBITORS OF HISTONE DEMETHYLASES (PFI-63 AND PFI-90) FOR THE TREATMENT OF CANCER AND FOR THE INHIBITION OF HISTONE DEMETHYLASE IN CELLS” (The United States of America,as represented by the …, priority 2019, published 2023).

`Cc1cc(C)cc(C(=O)NNC(=O)c2ccccn2)c1` [PFI-63]: in assay [1], the cell morphology result is recorded as “elongation of cells”.

As to `O=C(NNc1ccccn1)c1ccccn1` [PFI-90], the cell growth entry was “inhibits cell growth” in assay [2] (CNS cancer cell lines); “inhibits cell growth” in assay [2] (breast cancer cell lines); “inhibits cell growth” in assay [2] (colon cancer cell lines); “slows and/or stops the growth of the cells; also recorded: inhibits cell growth” in assay [2] (leukemia cell lines); “inhibits cell growth” in assay [2] (melanoma cell lines); “inhibits cell growth” in assay [2] (non-small cell lung cancer cell lines). Moreover, the cell growth entry was “inhibits cell growth” in assay [2] (ovarian cancer cell lines); “inhibits cell growth” in assay [2] (prostate cancer cell lines); “inhibits growth and leads to cell death; also recorded: inhibits cell growth and induces cell death” in assay [2] (renal cancer cell lines).
